Measurements published in patent US20240117269A1, “NOVEL AROMATIC MONOTHIOKETALS AS FRAGRANCE COMPOUNDS” (SYMRISE AG, priority 2019, published 2024).

Assay: Odor detection threshold (ODT), dynamic olfactometer TO8, expert group, EN 13725
Details: in air
Method: The odor perception threshold, i.e. the ODT value (“odor detection threshold”), was determined using a dynamic olfactometer designated TO8 and a group of experts in accordance with the EN 13725 standard, in which an odorous air sample is diluted with clean air. The dilution is presented to the test persons (testers) for evaluation. The odor description was carried out by a group of experts comprising 10 members.

Row | SMILES | ODT value
1 | CC1OCc2ccccc2S1 (centres unmarked) [2-methyl-4H-3,1-benzoxathiin] | 3.6 ng/L
2 | c1ccc2c(c1)COCS2 [4H-3,1-benzoxathiin] | 43.6 ng/L
